The structures appear in SMILES notation. Converted amounts (≈) assume the structure as drawn. “And” between values parts separate entries of the source, which are not always exact repeats. Identical values can stand only once.

A short description of data set [1]: PDS solubility (Chemical Method 1, UV-visible absorbance of saturated solution). It counts as physicochemical. To be noted: thermodynamic from solid; pH 6.5 aqueous phosphate buffer, 5% glyme. The method, then:
Solubility of a test compound of the present invention refers to solubility of the compound in a solvent mixture containing ethylene glycol dimethylether (“glyme”) and pH 6.5 aqueous phosphate buffer. The solubility was determined by measuring ultraviolet-visible absorbance of a saturated solution of the compound and comparing the absorbance value to absorbance values obtained for four standard solutions of the compound having known concentrations plotted on a 4-point ultraviolet-visible standard curve. […]
The prepared 96-well plate was transferred to a 96-well ultraviolet-visible plate reader, and the wells were scanned over wavelengths of from 220 nm to 350 nm with a step size of 2 nm. The ultraviolet-visible data (i.e., data generated at the same wavelength) were electronically exported to a spreadsheet and absorbance data for the filtrate of the saturated solution measured at one wavelength (i.e., the data that had the best linear fit as calculated by the highest regression coefficient, typically 0.98 or higher) and the corresponding standards absorbance data measured at the same wavelength were plotted as a standard absorbance-concentration curve based on the Lambert-Beer law. […] The calculated solubility was expressed as in milligrams of test compound in milliliters of solvent. […]

A further data set concerns the target T1, MMP-13 catalytic domain (Homo sapiens, UniProt P45452).
T1 construct: use the catalytic domain of the MMP-13 enzyme, namely matrix metalloproteinase-13 catalytic domain
Nature of the data set: MMP-13 catalytic domain thiopeptolide hydrolysis inhibition (Biological Method 1). It counts as biochemical. The conditions noted are these: HEPES pH 7.0, 22° C.; read-out: MMP-13CD IC50. From the text: (§1) In general, the MMP inhibition assays measure the amount by which a test compound reduces the hydrolysis of a thiopeptolide substrate catalyzed by a matrix metalloproteinase enzyme. Such assays are described in detail by Ye et al., in Biochemistry, 1992;31(45):11231-11235, which is incorporated herein by reference.
Some of the particular methods described below use the catalytic domain of the MMP-13 enzyme, namely matrix metalloproteinase-13 catalytic domain (“MMP-13CD”), rather than the corresponding full-length enzyme, MMP-13. It has been shown previously by Ye Qi-Zhuang, Hupe D., and Johnson L. (Current Medicinal Chemistry, 1996;3:407-418) that inhibitor activity against a catalytic domain of an MMP is predictive of the inhibitor activity against the respective full-length MMP enzyme.
Thiopeptolide substrates show virtually no decomposition or hydrolysis at or below neutral pH in the absence of a matrix metalloproteinase enzyme. A typical thiopeptolide substrate commonly utilized for assays is Ac-Pro-Leu-Gly-thioester-Leu-Leu-Gly-OEt. A 100 μL assay mixture will contain 50 mM of N-2-hydroxyethylpiperazine-N′-2-ethanesulfonic acid buffer (“HEPES,” pH 7.0), 10 mM CaCl2, 100 μM thiopeptolide substrate, and 1 mM 5,5′-dithio-bis-(2-nitrobenzoic acid) (DTNB). The thiopeptolide substrate concentration may be varied, for example from 10 to 800 μM to obtain Km and Kcat values. The change in absorbance at 405 nm is monitored on a Thermo Max microplate reader (molecular Devices, Menlo Park, Calif.) at room temperature (22° C.). The calculation of the amount of hydrolysis of the thiopeptolide substrate is based on E412=13600 M^−1 cm^−1 for the DTNB-derived product 3-carboxy-4-nitrothiophenoxide. Assays are carried out with and without matrix metalloproteinase inhibitor compounds, and the amount of hydrolysis is compared for a determination of inhibitory activity of the test compounds. […]

Another data set addresses T2, MMP-1 full-length (Homo sapiens, UniProt P03956).
T2 construct: have been assayed with MMP-1 full-length, MMP-2 full-length
T2 sequence (P03956 100-469): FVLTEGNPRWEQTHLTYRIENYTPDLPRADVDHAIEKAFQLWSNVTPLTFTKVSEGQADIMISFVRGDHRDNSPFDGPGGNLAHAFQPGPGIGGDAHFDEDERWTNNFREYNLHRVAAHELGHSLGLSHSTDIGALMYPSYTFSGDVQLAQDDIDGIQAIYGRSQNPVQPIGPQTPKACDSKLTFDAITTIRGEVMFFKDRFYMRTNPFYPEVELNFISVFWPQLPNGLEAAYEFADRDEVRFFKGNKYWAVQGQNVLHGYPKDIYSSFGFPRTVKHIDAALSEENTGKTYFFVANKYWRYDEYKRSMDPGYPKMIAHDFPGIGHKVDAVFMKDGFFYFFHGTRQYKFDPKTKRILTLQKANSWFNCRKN
Nature of the data set: MMP-1 full-length thiopeptolide hydrolysis inhibition. The class given is biochemical. To be noted: read-out: MMP-1FL IC50.
From the text: as §1
(§2) Thiopeptolide substrates show virtually no decomposition or hydrolysis at or below neutral pH in the absence of a matrix metalloproteinase enzyme. A typical thiopeptolide substrate commonly utilized for assays is Ac-Pro-Leu-Gly-thioester-Leu-Leu-Gly-OEt. A 100 μL assay mixture will contain 50 mM of N-2-hydroxyethylpiperazine-N′-2-ethanesulfonic acid buffer (“HEPES,” pH 7.0), 10 mM CaCl2, 100 μM thiopeptolide substrate, and 1 mM 5,5′-dithio-bis-(2-nitrobenzoic acid) (DTNB). The thiopeptolide substrate concentration may be varied, for example from 10 to 800 μM to obtain Km and Kcat values. The change in absorbance at 405 nm is monitored on a Thermo Max microplate reader (molecular Devices, Menlo Park, Calif.) at room temperature (22° C.). The calculation of the amount of hydrolysis of the thiopeptolide substrate is based on E412=13600 M^−1 cm^−1 for the DTNB-derived product 3-carboxy-4-nitrothiophenoxide. Assays are carried out with and without matrix metalloproteinase inhibitor compounds, and the amount of hydrolysis is compared for a determination of inhibitory activity of the test compounds.
(§3) Test compounds were evaluated at various concentrations in order to determine their respective IC50 values, the micromolar concentration of compound required to cause a 50% inhibition of catalytic activity of the respective enzyme.
(§4) The test described above for the inhibition of MMP-13 may also be adapted and used to determine the ability of the compounds of formula (I) to inhibit the matrix metalloproteases MMP-1, MMP-2, MMP-3, MMP-7, MMP-9, MMP-12, MMP-14, and MMP-17. […]

The target in another data set is T3, MMP-3 catalytic domain (Homo sapiens, UniProt P08254).
T3 construct: MMP-2 full-length, MMP-3 catalytic domain, MMP-7 full-length
Nature of the data set: MMP-3 catalytic domain thiopeptolide hydrolysis inhibition. It counts as biochemical. To be noted: MES buffer pH 6.0; read-out: MMP-3CD IC50.
From the text: as §1, §2, §3
The assay buffer used with MMP-3CD was 50 mM N-morpholinoethane sulfonate (“MES”) at pH 6.0 rather than the HEPES buffer at pH 7.0 described above.
as §4

The next data set has as its target T4, MMP-7 full-length (Homo sapiens, UniProt P09237).
T4 construct: further screened with full-length MMP-2, full-length MMP-7, full-length MMP-9
T4 sequence (P09237 95-267): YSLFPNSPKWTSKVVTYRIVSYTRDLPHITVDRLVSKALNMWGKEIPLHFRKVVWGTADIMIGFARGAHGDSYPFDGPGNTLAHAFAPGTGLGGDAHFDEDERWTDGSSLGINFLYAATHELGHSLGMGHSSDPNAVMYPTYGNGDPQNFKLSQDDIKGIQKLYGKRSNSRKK
Nature of the data set: MMP-7 full-length thiopeptolide hydrolysis inhibition. It counts as biochemical. The conditions noted are these: read-out: MMP-7FL IC50.
From the text: as §1, §2, §3, §4

Another data set deals with T5, MMP-8 catalytic domain (Homo sapiens, UniProt P22894).
T5 construct: MMP-7 full-length, MMP-8 catalytic domain, MMP-9 full-length
Nature of the data set: MMP-8 catalytic domain thiopeptolide hydrolysis inhibition. The class given is biochemical. The conditions noted are these: read-out: MMP-8CD IC50.
From the text: as §1, §2, §3
Certain compounds of formula (I) have been assayed with MMP-1 full-length, MMP-2 full-length, MMP-3 catalytic domain, MMP-7 full-length, MMP-8 catalytic domain, MMP-9 full-length, MMP-12 catalytic domain, and MMP-14 catalytic domain.

The target in a further data set is T6, MMP-9 full-length (Homo sapiens, UniProt P14780).
T6 construct: further screened with full-length MMP-2, full-length MMP-7, full-length MMP-9
As to the kind of experiment: MMP-9 full-length thiopeptolide hydrolysis inhibition. To be noted: read-out: MMP-9FL IC50. It counts as biochemical.
From the text: as §1, §2, §3, §4

In the next data set the target is T7, MMP-12 catalytic domain (Homo sapiens, UniProt P39900).
T7 construct: MMP-9 full-length, MMP-12 catalytic domain, and MMP-14 catalytic domain
As to the kind of experiment: MMP-12 catalytic domain thiopeptolide hydrolysis inhibition. It counts as biochemical. To be noted: read-out: MMP-12CD IC50.
From the text: as §1, §2, §3, §4

Another data set deals with T8, MMP-14 catalytic domain (Homo sapiens, UniProt P50281).
T8 construct: MMP-9 full-length, MMP-12 catalytic domain, and MMP-14 catalytic domain
As to the kind of experiment: MMP-14 catalytic domain thiopeptolide hydrolysis inhibition. The class given is biochemical. The conditions noted are these: read-out: MMP-14CD IC50.
From the text: as §1, §2, §3, §4

For another data set, the target named is T9, MMP-2 full-length (Homo sapiens, UniProt P08253).
T9 construct: further screened with full-length MMP-2, full-length MMP-7, full-length MMP-9
T9 sequence (P08253 110-660): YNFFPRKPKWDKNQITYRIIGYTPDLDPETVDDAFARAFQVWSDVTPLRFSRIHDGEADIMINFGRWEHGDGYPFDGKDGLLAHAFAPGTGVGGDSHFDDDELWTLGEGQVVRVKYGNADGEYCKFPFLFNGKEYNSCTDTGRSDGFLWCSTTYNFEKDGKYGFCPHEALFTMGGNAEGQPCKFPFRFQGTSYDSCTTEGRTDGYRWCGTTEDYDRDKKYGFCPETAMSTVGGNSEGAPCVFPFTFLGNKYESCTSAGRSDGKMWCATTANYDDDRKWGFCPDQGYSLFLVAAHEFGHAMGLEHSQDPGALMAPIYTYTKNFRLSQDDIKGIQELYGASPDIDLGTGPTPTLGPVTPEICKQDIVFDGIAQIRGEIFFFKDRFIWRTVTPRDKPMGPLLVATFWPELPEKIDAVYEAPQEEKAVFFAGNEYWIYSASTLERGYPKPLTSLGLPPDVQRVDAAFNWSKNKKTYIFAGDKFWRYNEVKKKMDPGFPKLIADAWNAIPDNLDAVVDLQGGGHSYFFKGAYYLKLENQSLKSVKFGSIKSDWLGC
Nature of the data set: MMP-2 full-length thiopeptolide hydrolysis inhibition. The conditions noted are these: read-out: MMP-2FL IC50. It counts as biochemical.
From the text: as §1
Thiopeptolide substrates show virtually no decomposition or hydrolysis at or below neutral pH in the absence of a matrix metalloproteinase enzyme. A typical thiopeptolide substrate commonly utilized for assays is Ac-Pro-Leu-Gly-thioester-Leu-Leu-Gly-OEt. A 100 μL assay mixture will contain 50 mM of N-2-hydroxyethylpiperazine-N′-2-ethanesulfonic acid buffer (“HEPES,” pH 7.0), 10 mM CaCl2, 100 μM thiopeptolide substrate, and 1 mM 5,5′-dithio-bis-(2-nitrobenzoic acid) (DTNB). The thiopeptolide substrate concentration may be varied, for example from 10 to 800 μM to obtain Km and Kcat values. The change in absorbance at 405 nm is monitored on a Thermo Max microplate reader (molecular Devices, Menlo Park, Calif.) at room temperature (22° C.). The calculation of the amount of hydrolysis of the thiopeptolide substrate is based on E412=13600 M^−1 cm^−1 for the DTNB-derived product 3-carboxy-4-nitrothiophenoxide. […]

T3 sequence (P08254 100-272 limits assumed, species assumed): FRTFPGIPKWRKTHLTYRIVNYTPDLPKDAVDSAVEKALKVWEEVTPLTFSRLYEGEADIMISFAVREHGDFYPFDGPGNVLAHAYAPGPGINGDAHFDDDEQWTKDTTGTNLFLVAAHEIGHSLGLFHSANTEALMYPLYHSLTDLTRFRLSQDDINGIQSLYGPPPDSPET
T6 sequence (P14780 94-707, species assumed): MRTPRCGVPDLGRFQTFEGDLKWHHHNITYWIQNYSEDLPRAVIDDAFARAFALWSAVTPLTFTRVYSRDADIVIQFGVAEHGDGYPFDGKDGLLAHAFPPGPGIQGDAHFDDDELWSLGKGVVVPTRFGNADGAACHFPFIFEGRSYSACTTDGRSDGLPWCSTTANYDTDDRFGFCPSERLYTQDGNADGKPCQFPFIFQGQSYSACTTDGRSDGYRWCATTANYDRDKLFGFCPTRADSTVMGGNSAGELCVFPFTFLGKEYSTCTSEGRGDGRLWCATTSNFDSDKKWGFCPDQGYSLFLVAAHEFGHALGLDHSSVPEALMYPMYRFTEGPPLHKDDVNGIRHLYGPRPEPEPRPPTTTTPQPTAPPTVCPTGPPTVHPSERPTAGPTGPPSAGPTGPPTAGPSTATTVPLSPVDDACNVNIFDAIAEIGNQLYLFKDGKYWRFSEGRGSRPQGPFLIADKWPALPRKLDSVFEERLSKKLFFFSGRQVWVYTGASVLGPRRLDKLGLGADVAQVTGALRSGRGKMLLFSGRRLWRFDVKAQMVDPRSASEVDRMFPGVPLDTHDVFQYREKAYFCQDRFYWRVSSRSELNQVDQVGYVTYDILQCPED
T5 sequence (P22894 100-262 limits assumed, species assumed): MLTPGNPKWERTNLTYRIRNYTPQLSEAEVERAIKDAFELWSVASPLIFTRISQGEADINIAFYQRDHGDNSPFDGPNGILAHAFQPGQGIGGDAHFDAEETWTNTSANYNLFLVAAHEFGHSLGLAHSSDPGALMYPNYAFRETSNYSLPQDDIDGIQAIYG
T7 sequence (P39900 106-263 limits assumed, species assumed): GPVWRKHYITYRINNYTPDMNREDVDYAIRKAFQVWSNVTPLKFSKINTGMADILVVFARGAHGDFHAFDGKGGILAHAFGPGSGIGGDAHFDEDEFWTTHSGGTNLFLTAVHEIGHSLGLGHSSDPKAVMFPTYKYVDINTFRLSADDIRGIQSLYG

By solubility is commonly meant the dissolved amount per volume that the medium holds. Read a high solubility as much dissolved substance. As a reminder, the IC50 is the concentration at which inhibition is half-maximal. As to `Cc1cc(C(F)CCc2ccc(C(=O)O)cc2)cc(C(=O)NCc2cccc(C(F)(F)F)c2)n1` (stereo not shown) [Example 1, 4-{3-fluoro-3-[2-methyl-6-(3-trifluoromethyl-benzylcarbamoyl)-pyridin-4-yl]-propyl}-benzoic acid], the solubility in data set [1] is 27 µg/mL (≈ 56.9 µM). In addition, the concentration for half-maximal inhibition (IC50) is 0.028 µM and 0.039 µM at MMP-13 catalytic domain; above 100 µM at MMP-1 full-length; 11 µM at MMP-3 catalytic domain; 51 µM on MMP-7 full-length; above 30 µM at MMP-8 catalytic domain; 51 µM on MMP-9 full-length. Further, the IC50 at MMP-12 catalytic domain was above 100 µM; at MMP-14 catalytic domain it was 56 µM.

The molecule `Cc1cc(C(F)(F)CCc2ccc(C(=O)O)cc2)cc(C(=O)NCc2cccc(C(F)(F)F)c2)n1.O=C(O)C(F)(F)F` [Example 2, 4-{3,3-difluoro-3-[2-methyl-6-(3-trifluoromethyl-benzylcarbamoyl)-pyridin-4-yl]-propyl}-benzoic acid monotrifluoroacetic acid salt] came in with a solubility in [1] of 4 µg/mL. The half-inhibitory concentration (IC50) is 0.087 µM and 0.11 µM at MMP-13 catalytic domain; above 100 µM on MMP-1 full-length; above 100 µM at MMP-2 full-length; 13 µM on MMP-3 catalytic domain; 1.7 µM on MMP-7 full-length; above 30 µM at MMP-8 catalytic domain. For the same molecule, the IC50 on MMP-9 full-length was 64 µM; on MMP-12 catalytic domain, above 100 µM; on MMP-14 catalytic domain it was above 100 µM.

With `Cc1cc(C(O)CCc2ccc(C(=O)O)cc2)cc(C(=O)NCc2cccc(C(F)(F)F)c2)n1` (stereo not shown) [Example 3, 4-{3-hydroxy-3-[2-methyl-6-(3-trifluoromethyl-benzylcarbamoyl)-pyridin-4-yl]-propyl}-benzoic acid], the 50% inhibitory concentration (IC50) on MMP-13 catalytic domain was 0.062 µM; on MMP-1 full-length, above 100 µM; on MMP-2 full-length, 90 µM; on MMP-3 catalytic domain, 6 µM; on MMP-7 full-length it was below 10 µM; on MMP-8 catalytic domain it was above 100 µM. For the same molecule, the results for the half-maximal inhibitory concentration (IC50) on MMP-9 full-length, at MMP-12 catalytic domain and at MMP-14 catalytic domain were below 10 µM, above 100 µM and above 100 µM, respectively.

The values are drawn from US20080161365A1, “Methylene Derivatives” (PFIZER INC., priority 2005, published 2008).
